Consider eleven compounds from ChEMBL document CHEMBL1151667, “Chlorochimaphilin: a new antibiotic from Moneses uniflora” (1996).

For experiment [1], the system named is Staphylococcus aureus. The experiment can be described thus: Antimicrobial activity against Staphylococcus aureus SAP00017 after 24 hrs by twofold serial microbroth dilution assay. Type of experiment: functional.
The subject of a further experiment is Yarrowia lipolytica. The experiment can be described thus: Antimicrobial activity against Candida lipolytica after 48 hrs by twofold serial microbroth dilution assay. Type of experiment: functional. In general terms: Dilution methods test growth across graded concentrations, often in twofold steps.
Experiment [2] relates to Escherichia coli. Description: Antimicrobial activity against Escherichia coli DC2 after 24 hrs by twofold serial microbroth dilution assay. Type of experiment: functional.
The test system of experiment [3] is Bacillus subtilis. The experiment can be described thus: Antimicrobial activity against Bacillus subtilis Vernon after 24 hrs by twofold serial microbroth dilution assay. Type of experiment: functional.
The subject of experiment [4] is Candida albicans. The experiment can be described thus: Antimicrobial activity against Candida albicans after 48 hrs by twofold serial microbroth dilution assay. It counts as functional.
The test system of a further experiment is Mycobacterium avium. Description: Antimicrobial activity against Mycobacterium avium 724 ATCC 25291 at 100 ug/disk after 2 weeks by disk diffusion method. Type of experiment: functional, organism-based. On the technique in general: A growth-free zone around the sample is the usual read-out of agar diffusion tests.
The next experiment relates to Fusarium tricinctum. Description: Antimicrobial activity against Fusarium tricinctum after 48 hrs by twofold serial microbroth dilution assay. Type of experiment: functional.
A further experiment relates to Nannizzia gypsea. The experiment can be described thus: Antimicrobial activity against Microsporum gypseum after 48 hrs by twofold serial microbroth dilution assay. Type of experiment: functional.
The next experiment has as its system Aspergillus flavus. Description: Antimicrobial activity against Aspergillus flavus after 48 hrs by twofold serial microbroth dilution assay. Type of experiment: functional.
In experiment [5] the test system is Escherichia coli. Description: Antimicrobial activity against Escherichia coli UB1005 after 24 hrs by twofold serial microbroth dilution assay. The following applies: UB1005, 24 h.
The test system of experiment [6] is Pseudomonas aeruginosa. Description: Antimicrobial activity against Pseudomonas aeruginosa K799 after 24 hrs by twofold serial microbroth dilution assay. Type of experiment: functional.
The test system of experiment [7] is Mycobacterium tuberculosis. Description: Antimicrobial activity against Mycobacterium tuberculosis 107 ATCC 35801 at 100 ug/disk after 4 weeks by disk diffusion method. Type of experiment: functional, organism-based.
Experiment [8] relates to Staphylococcus aureus. Description: Antimicrobial activity against Staphylococcus aureus RN4220 after 24 hrs by twofold serial microbroth dilution assay. It counts as functional.
The subject of another experiment is Human alphaherpesvirus 1. Description: Antiviral activity against Herpes simplex virus 1 assessed as effect on virus-induced cytopathic effect at 200 ug/ml after 3 days. It counts as functional, organism-based. A general note: Protection from cytopathic effect is a common read-out in antiviral testing.
Experiment [9] relates to Candida albicans. Description: Antimicrobial activity against Candida albicans CAND105 after 48 hrs by twofold serial microbroth dilution assay. It counts as functional.
For experiment [10], the system named is Respiratory syncytial virus. The experiment can be described thus: Antiviral activity against Respiratory syncytial virus assessed as effect on virus-induced cytopathic effect at 200 ug/ml after 3 days. Type of experiment: functional, organism-based.
For another experiment, the system named is Aspergillus fumigatus. Description: Antimicrobial activity against Aspergillus fumigatus after 48 hrs by twofold serial microbroth dilution assay. It counts as functional.
The next experiment has as its system Saccharomyces cerevisiae. Description: Antimicrobial activity against Saccharomyces cerevisiae after 48 hrs by twofold serial microbroth dilution assay. Type of experiment: functional.
Experiment [11] concerns Pseudomonas aeruginosa. The experiment can be described thus: Antimicrobial activity against Pseudomonas aeruginosa Z61 after 24 hrs by twofold serial microbroth dilution assay. It counts as functional.
The test system of experiment [12] is Escherichia coli. The experiment can be described thus: Antimicrobial activity against Escherichia coli DC2 at <=800 ug/ml after 24 hrs by twofold serial microbroth dilution assay. Type of experiment: functional, organism-based.
Experiment [13] relates to Staphylococcus aureus. The experiment can be described thus: Antimicrobial activity against Staphylococcus aureus RN4220 at <=800 ug/ml after 24 hrs by twofold serial microbroth dilution assay. It counts as functional, organism-based.
Experiment [14] has as its system Staphylococcus aureus. The experiment can be described thus: Antimicrobial activity against Staphylococcus aureus SAP00017 at <=800 ug/ml after 24 hrs by twofold serial microbroth dilution assay. Type of experiment: functional, organism-based.
Experiment [15] has as its system Pseudomonas aeruginosa. Description: Antimicrobial activity against Pseudomonas aeruginosa K799 at <=800 ug/ml after 24 hrs by twofold serial microbroth dilution assay. It counts as functional, organism-based.
Experiment [16] has as its system Candida albicans. The experiment can be described thus: Antimicrobial activity against Candida albicans CAND105 at <=800 ug/ml after 48 hrs by twofold serial microbroth dilution assay. Type of experiment: functional, organism-based.
In experiment [17] the test system is Bacillus subtilis. The experiment can be described thus: Antimicrobial activity against Bacillus subtilis Vernon at <=800 ug/ml after 24 hrs by twofold serial microbroth dilution assay. It counts as functional, organism-based.
Experiment [18] concerns Escherichia coli. Description: Antimicrobial activity against Escherichia coli UB1005 at <=800 ug/ml after 24 hrs by twofold serial microbroth dilution assay. It counts as functional, organism-based.
Experiment [19] has as its system Pseudomonas aeruginosa. Description: Antimicrobial activity against Pseudomonas aeruginosa Z61 at <=800 ug/ml after 24 hrs by twofold serial microbroth dilution assay. Type of experiment: functional, organism-based.

Converted amounts (≈) assume the structure as drawn. The source made the active and inactive calls. The calls are words filed in the database; no cut-off is given here.

For the compound `CC1=CC(=O)c2ccc(C)c(Cl)c2C1=O`, the MIC was 25 µg/mL (≈ 113 µM) against Staphylococcus aureus [1]; 50 µg/mL (≈ 227 µM) against Yarrowia lipolytica; 800 µg/mL (≈ 3630 µM) in the experiment on Escherichia coli [2]; 12.5 µg/mL (≈ 56.6 µM) in the experiment with Bacillus subtilis [3]; 100 µg/mL (≈ 453 µM) against Candida albicans [4]; 12.5 µg/mL (≈ 56.6 µM) with Fusarium tricinctum. In addition, the MIC in the experiment on Nannizzia gypsea is 3.1 µg/mL (≈ 14 µM); against Aspergillus flavus, 25 µg/mL (≈ 113 µM); in the experiment with Escherichia coli [5], more than 800 µg/mL; against Pseudomonas aeruginosa [6], more than 800 µg/mL; with Staphylococcus aureus [8] (RN4220, 24 h), 200 µg/mL (≈ 906 µM); against Candida albicans [9], 50 µg/mL (≈ 227 µM). In addition, the MIC with Aspergillus fumigatus was found to be 25 µg/mL (≈ 113 µM); in the experiment with Saccharomyces cerevisiae it was 100 µg/mL (≈ 453 µM); with Pseudomonas aeruginosa [11] it was 400 µg/mL (≈ 1810 µM). For the same compound, the result (with Mycobacterium avium; in experiment [7]; with Human alphaherpesvirus 1; in [10]) was inactive.

On to GENTAMICIN, for which the MIC in the experiment with Staphylococcus aureus [1] is more than 32 µg/mL; in the experiment with Escherichia coli [2], 1 µg/mL; in the experiment with Bacillus subtilis [3] it was 16 µg/mL; against Pseudomonas aeruginosa [6], 1 µg/mL; against Staphylococcus aureus [8] it was 0.3 µg/mL; against Candida albicans [9], more than 32 µg/mL. Besides, the MIC with Pseudomonas aeruginosa [11] turned out to be 0.3 µg/mL.

For the compound `COc1ccc2c(OC(C)=O)cc(OC)c(OC(C)=O)c2c1OC(C)=O`, the outcome in the experiment on Escherichia coli [12], in the experiment with Staphylococcus aureus [13], in the experiment with Staphylococcus aureus [14], in the experiment with Pseudomonas aeruginosa [15], in the experiment on Candida albicans [16] and in the experiment with Bacillus subtilis [17] was inactive. The outcome in the experiment with Escherichia coli [18] and with Pseudomonas aeruginosa [19] was inactive.

For `Cc1ccc2c(O[C@@H]3O[C@@H](C)[C@H](O)[C@@H](O)[C@H]3O)c(O)c(C)c(O)c2c1`, the result in the experiment with Escherichia coli [12], in the experiment with Staphylococcus aureus [13], in the experiment with Staphylococcus aureus [14], with Pseudomonas aeruginosa [15], in the experiment with Candida albicans [16] and in the experiment on Bacillus subtilis [17] was inactive. In addition, the result with Escherichia coli [18] and with Pseudomonas aeruginosa [19] was inactive.

Turning to `CC1=CC(=O)c2ccc(C)cc2C1=O` [CHIMAPHILIN], the MIC in the experiment on Staphylococcus aureus [1] is 25 µg/mL (≈ 134 µM); in the experiment with Yarrowia lipolytica, 50 µg/mL (≈ 269 µM); with Escherichia coli [2], more than 800 µg/mL; in the experiment on Bacillus subtilis [3], 50 µg/mL (≈ 269 µM); with Candida albicans [4], 50 µg/mL (≈ 269 µM); with Fusarium tricinctum, 12.5 µg/mL (≈ 67.1 µM). The MIC is 6.2 µg/mL (≈ 33.3 µM) against Nannizzia gypsea; 25 µg/mL (≈ 134 µM) against Aspergillus flavus; more than 800 µg/mL in the experiment with Escherichia coli [5]; more than 800 µg/mL with Pseudomonas aeruginosa [6]; 25 µg/mL (≈ 134 µM) against Staphylococcus aureus [8] (RN4220, 24 h); 400 µg/mL (≈ 2150 µM) in the experiment with Candida albicans [9]. Moreover, the MIC was 50 µg/mL (≈ 269 µM) against Aspergillus fumigatus, 50 µg/mL (≈ 269 µM) against Saccharomyces cerevisiae and more than 800 µg/mL against Pseudomonas aeruginosa [11]. Moreover, the result (with Mycobacterium avium; in experiment [7]; with Human alphaherpesvirus 1; in [10]) was inactive.

In the case of NYSTATIN, the MIC in the experiment with Yarrowia lipolytica was more than 10 µg/mL; in the experiment with Candida albicans [4] it was 10 µg/mL; against Fusarium tricinctum it was 5 µg/mL; against Nannizzia gypsea, 2.5 µg/mL; in the experiment with Aspergillus flavus, more than 10 µg/mL; in the experiment on Aspergillus fumigatus, 5 µg/mL. Moreover, the MIC against Saccharomyces cerevisiae came out at 10 µg/mL.

Regarding `C[C@@H]1[C@H](O)[C@@H](C)/C=C/C=C/C=C/C=C/C=C/C=C/C=C/[C@H](O[C@@H]2O[C@H](C)[C@@H](O)[C@H](N)[C@@H]2O)C[C@@H]2O[C@](O)(C[C@@H](O)C[C@@H](O)[C@H](O)CC[C@@H](O)C[C@@H](O)CC(=O)O[C@H]1C)C[C@H](O)[C@H]2C(=O)O` [AMPHOTERICIN B], the MIC against Staphylococcus aureus [1] is more than 5 µg/mL; with Escherichia coli [2], more than 5 µg/mL; in the experiment with Bacillus subtilis [3], more than 5 µg/mL; against Escherichia coli [5], more than 5 µg/mL; in the experiment on Pseudomonas aeruginosa [6], more than 5 µg/mL; with Staphylococcus aureus [8] (RN4220, 24 h) it was more than 5 µg/mL. Also, the MIC is 0.1 µg/mL (≈ 0.108 µM) against Candida albicans [9] and more than 5 µg/mL with Pseudomonas aeruginosa [11].

Regarding `COc1cccc(OC)c1C(=O)N[C@@H]1C(=O)N2[C@@H]1SC(C)(C)[C@@H]2C(=O)O` [METHICILLIN], the MIC was 256 µg/mL (≈ 673 µM) in the experiment with Staphylococcus aureus [1]; less than 4 µg/mL in the experiment on Escherichia coli [2]; 128 µg/mL (≈ 336 µM) in the experiment with Bacillus subtilis [3]; more than 512 µg/mL against Escherichia coli [5]; 256 µg/mL (≈ 673 µM) with Pseudomonas aeruginosa [6]; less than 4 µg/mL with Staphylococcus aureus [8] (RN4220, 24 h). Moreover, the MIC was more than 512 µg/mL against Candida albicans [9] and less than 4 µg/mL against Pseudomonas aeruginosa [11].

Regarding `CC(=O)Oc1c(C)c(OC(C)=O)c2cc(C)ccc2c1O[C@@H]1O[C@@H](C)[C@H](OC(C)=O)[C@@H](OC(C)=O)[C@H]1OC(C)=O`, the outcome with Escherichia coli [12], with Staphylococcus aureus [13], in the experiment on Staphylococcus aureus [14], in the experiment on Pseudomonas aeruginosa [15], with Candida albicans [16] and with Bacillus subtilis [17] was inactive. Also, the outcome in the experiment with Escherichia coli [18] and with Pseudomonas aeruginosa [19] was inactive.

As for `COc1ccc2c(O)cc(OC)c(O)c2c1O`, the outcome with Escherichia coli [12], in the experiment with Staphylococcus aureus [13], in the experiment with Staphylococcus aureus [14], in the experiment on Pseudomonas aeruginosa [15], with Candida albicans [16] and in the experiment on Bacillus subtilis [17] was inactive. The outcome in the experiment with Escherichia coli [18] and in the experiment with Pseudomonas aeruginosa [19] was inactive.

For `CC1=C(O)C(=O)c2ccc(C)cc2C1=O`, the MIC against Staphylococcus aureus [1] is 800 µg/mL (≈ 3960 µM); in the experiment on Yarrowia lipolytica, 25 µg/mL (≈ 124 µM); in the experiment on Escherichia coli [2], more than 800 µg/mL; against Bacillus subtilis [3] it was 800 µg/mL (≈ 3960 µM); against Candida albicans [4], 50 µg/mL (≈ 247 µM); with Fusarium tricinctum, 25 µg/mL (≈ 124 µM). The MIC in the experiment with Nannizzia gypsea was 12.5 µg/mL (≈ 61.8 µM); in the experiment with Aspergillus flavus it was 100 µg/mL (≈ 495 µM); against Escherichia coli [5], more than 800 µg/mL; against Pseudomonas aeruginosa [6], more than 800 µg/mL; in the experiment on Staphylococcus aureus [8] (RN4220, 24 h), 400 µg/mL (≈ 1980 µM); against Candida albicans [9] it was 80 µg/mL (≈ 396 µM). For the same compound, the MIC was 50 µg/mL (≈ 247 µM) in the experiment on Aspergillus fumigatus, more than 100 µg/mL against Saccharomyces cerevisiae and more than 800 µg/mL in the experiment with Pseudomonas aeruginosa [11]. For the same compound, the outcome (with Mycobacterium avium; in experiment [7]; with Human alphaherpesvirus 1; in [10]) was inactive.

A word on the MIC: it is the lowest concentration that inhibits growth of the organism. Lower therefore signals inhibition by little substance.
